Assay results from PubChem BioAssay (NCI).
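How tested: cells in 96-well plates exposed to compound for 48 hours at five concentrations. GI50: concentration for 50% inhibition of growth. TGI is the concentration that stops growth completely.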

Experiments:
Experiment in all cases: DTP human tumour cell line panel, 48 h
CAKI-1 renal = system: CAKI-1 renal
HCT-116 colon = system: HCT-116 colon
K-562 leukemia = system: K-562 leukemia
MDA-MB-231 breast = system: MDA-MB-231 breast
NCI-H460 lung = system: NCI-H460 lung
SF-295 CNS = system: SF-295 CNS
SN12C renal = system: SN12C renal
TK-10 renal = system: TK-10 renal
UACC-257 melanoma = system: UACC-257 melanoma
SK-MEL-28 melanoma = system: SK-MEL-28 melanoma

| Structure (SMILES) | GI50 (CAKI-1 renal) [µM] | TGI (CAKI-1 renal) [µM] | GI50 (HCT-116 colon) [µM] | TGI (HCT-116 colon) [µM] | GI50 (K-562 leukemia) [µM] | TGI (K-562 leukemia) [µM] | GI50 (MDA-MB-231 breast) [µM] | TGI (MDA-MB-231 breast) [µM] | GI50 (NCI-H460 lung) [µM] | TGI (NCI-H460 lung) [µM] | GI50 (SF-295 CNS) [µM] | TGI (SF-295 CNS) [µM] | GI50 (SN12C renal) [µM] | TGI (SN12C renal) [µM] | GI50 (TK-10 renal) [µM] | TGI (TK-10 renal) [µM] | GI50 (UACC-257 melanoma) [µM] | TGI (UACC-257 melanoma) [µM] | TGI (SK-MEL-28 melanoma) [µM] | GI50 (SK-MEL-28 melanoma) [µM] |
| --- | --- | --- | --- | --- | --- | --- | --- | --- | --- | --- | --- | --- | --- | --- | --- | --- | --- | --- | --- | --- |
| COc1ccc2c(c1OC)-c1c(c3ccc([N+](=O)[O-])cc3c(=O)n1CCCBr)C2=O | 7.31 | > 100 | 19 | > 100 | 99.7 | > 100 | 55 | > 100 | 6.64 | 68.8 | 28.6 | > 100 | 36.2 | > 100 | > 100 | > 100 | > 100 | > 100 |  |  |
| O=[N+]([O-])c1nccn1CC(O)CN1CCCCC1 (stereo not drawn) |  | > 100 |  | > 100 |  | > 100 |  | > 100 |  | > 100 |  | > 100 |  | > 100 |  | > 100 |  | > 100 | > 100 |  |
| CNNC(=N\S(=O)(=O)c1cc(C)c(Cl)cc1SCc1ccccc1)/N=C/c1ccc([N+](=O)[O-])s1 | > 100 | > 100 | 1.53 | > 100 | 28.4 | > 100 | > 56.7 | > 100 | > 64.1 | > 100 | > 87.7 | > 100 | > 100 | > 100 | > 74.9 | > 100 | > 100 | > 100 | > 100 | > 100 |
| O=C(Nc1ccc(-n2ccc3c(NC(=O)c4ccccc4)ncnc32)cc1)c1cccc(C(F)(F)F)c1 | 1.13 | > 44.6 | 0.139 | 15.9 | 0.13 | > 53.8 | 2.76 | 23 | 0.0837 | 12.3 | 1.07 | 16.9 | 5.27 | 27.9 | 8.57 | 27.2 | 10.2 | 32.1 | 24.9 | 10.6 |
| C=C/C(C)=C/C[C@]1(C)[C@H](C)[C@@H](OC(=O)CCC)[C@H](O)[C@@]23C(=C[C@H](OC)C[C@@H]12)[C@@H](OC(=O)CCC)O[C@H]3OC(C)=O | 1.32 | 2.64 | 0.495 | 1.96 | 0.438 | 2.41 | 0.857 | 2.45 | 1.74 | 3.52 | 0.992 | 2.48 | 0.316 | 1.4 | 0.181 | 0.411 | 0.854 | 2.56 | 1.63 | 0.431 |
| O=c1cc(-c2ccc(O)cc2)oc2cc(O[C@@H]3O[C@H](CO)[C@@H](O)[C@H](O)[C@H]3O)cc(O)c12 |  | 0.718 |  | > 100 |  | > 100 |  | > 100 |  | > 100 |  | > 100 |  | > 100 |  | > 100 |  | > 100 | > 100 |  |
| C#CCNC(=S)N/N=C(\C)c1ccccn1 | 0.396 | > 33.8 | 0.0329 | > 38 | 0.0751 | > 100 | 0.292 | > 100 | 0.949 | 5.22 | 0.706 | > 100 | 0.388 | > 100 | 3.07 | > 100 | 0.302 | 1.49 | > 100 | 2.32 |
| CN(C)c1nc(=NCc2ccco2)ss1 |  | 49.1 |  | 35 |  | > 90.8 |  | 32.2 |  | > 100 |  | > 61.4 |  | 57.2 |  | > 100 |  | > 79.4 | 46.4 |  |
| CCC(C)Oc1nc2c(c(=O)n(C)c(=O)n2C)n1C (stereo not drawn) | > 100 | > 100 | > 100 | > 100 | > 100 | > 100 | > 100 | > 100 | > 100 | > 100 | > 100 | > 100 | > 100 | > 100 | > 100 | > 100 | > 100 | > 100 | > 100 | > 100 |
| Cn1cccc1-c1cc(-c2ccccc2)[nH]c(=O)c1C#N | > 100 | > 100 | > 100 | > 100 | > 100 | > 100 | > 100 | > 100 | > 100 | > 100 | > 100 | > 100 | > 100 | > 100 | > 100 | > 100 | > 100 | > 100 | > 100 | > 100 |
| COc1cc2ncnc(-n3ncc4cc(NC(=O)Nc5ccc(Cl)c(Cl)c5)ccc43)c2cc1OC | 2.3 | 5.94 | 2.8 | 10.3 | 3.02 | 10.8 | 1.96 | 4.03 | 2.08 | 4.57 | 1.38 | 2.94 | 2.1 | 4.78 | 2.38 | 6.45 | 3.23 | 6.79 | 3.24 | 1.57 |
| CCOc1ccc2c(c1)C(=O)c1c-2n(CCCBr)c(=O)c2cc([N+](=O)[O-])ccc12 | 8.15 | > 100 | 5.98 | > 100 | 50.9 | > 100 | > 100 | > 100 | 1.97 | 91.6 | 12.3 | > 100 | 11.9 | > 100 | > 100 | > 100 | 40.9 | 98.3 | > 100 | 88.8 |
| CCOC(=O)c1c(C)n(Cc2ccc(Cl)cc2Cl)c2c1cc1oc(=O)c(=O)n3cnc2c13 | 17 | 32.3 | 18.6 | 36 | 5.14 | 22.6 | 15.7 | 31.4 | 7.78 | 20 | 21.1 | 43.1 | 19 | 35.2 | 17.4 | 33 | 9.51 | 21.7 | 31.7 | 14.2 |
